Structure (SMILES)	log10 OH rate constant (cm³/molecule/s) (25.0 °C)	also measured
FC(F)(Cl)Br	< -15	–
Clc1cccc(Cl)c1	-12.1	–
C=C/C=C\C	-9.99	–
C=CCO	-10.6	–
CCOCCCO	-10.7	–
FC(F)(Cl)Cl	< -15.4	–
O=[N+]([O-])c1cccc2ccccc12	-11.3	–
CC(=O)C(C)(C)C	-11.9	–
CC#CC	-10.6	–
FCF	-14	–
C=CC(=C)CCC=C(C)C	-9.67	–
CS(C)=O	-10.2	–
C=COC	–	log10 OH rate constant (cm³/molecule/s) (26.0 °C): -10.5
CCCCCCCCCCCCCC	-10.7	–
CC(C)(N)CO	-10.6	–
COC(C)(C)OC	-11.4	–
COO	-11.3	–
CCCCCCCC(C)=O	-10.9	–
C=C(C)c1ccccc1	-10.3	–
C=CCCC=C	-10.2	–
CC1=CCC(C(C)C)C=C1 (centres undefined)	-9.5	–
CCOC(C)(C)OCC	-10.9	–
Brc1ccccc1	-12.1	–
CC(C)=C=O	-9.97	–
ClCc1ccccc1	-11.5	–

Structure (SMILES)	log10 OH rate constant (cm³/molecule/s) (25.0 °C)	also measured
CCCCC	-11.4	–
C1CCCOCC1	-10.8	–
CC(C)(C)C=O	-10.6	–
CCS	-10.3	–
CC1=CCC(C(C)C)=CC1	-9.75	–
Cc1cc(C)cc(C)c1	-10.2	–
CC(=O)C(C)=O	-12.6	–
OCCCl	-11.9	–
c1cscn1	–	log10 OH rate constant (cm³/molecule/s) (24.0 °C): -11.9
C=CC=C(C)C	-9.88	–
c1ccc2c(c1)Cc1ccccc1-2	-10.9	–
Cc1cccc(C)c1C	-10.5	–
CN(C)C	-10.2	–
C=C	-11.1	–
CC(C)CC(C)C	-11.3	–
c1ccc2occc2c1	-10.4	–
C=C(CCl)CCl	-10.5	–
CCOCCOC(C)=O	-10.9	–
CCC=O	-10.7	–
c1ccncc1	-12.4	–
O=Cc1ccccc1	-10.9	–
CN(C)CCO	-10	–
CF	-13.8	–
C1COC1	-11	–
FC(F)Cl	-14.3	–

Structure (SMILES)	log10 OH rate constant (cm³/molecule/s) (25.0 °C)	also measured
C=Cc1ccccc1	-10.2	–
C#CC	-11.2	–
COC(C)CCO (centres undefined)	-10.6	–
C1CCOC1	-10.8	–
CCOC(C)=O	-11.8	–
C#C	-12.1	–
CS	-10.5	–
CC1CCCCC1	-11	–
CC(O)CO (centres undefined)	-10.9	–
CCc1ccccc1C	-10.9	–
C1OCOCO1	-11.2	–
C1CCCCCC1	-10.9	–
c1cocn1	-11	–
c1ccc2c(c1)CCC2	-11	–
CC(C)CS	-10.3	–
C=C(C)C=CC	-9.87	–
Cc1cccc([N+](=O)[O-])c1	-12	–
CCF	-12.6	–
O=C1CCCCC1	-11.2	–
COCC(C)=O	-11.2	–
CCC(C)CS (centres undefined)	-10.3	–
CCCc1ccccc1	-11.2	–
ClC(Cl)=C(Cl)Cl	-12.8	–
FC(F)(F)c1ccccc1	-12.3	–
C=CC(C)=CC	-9.87	–

Structure (SMILES)	log10 OH rate constant (cm³/molecule/s) (25.0 °C)	also measured
c1cc[nH]c1	-9.96	–
CCOCCOCCOCC	-10.6	–
CC(C)CC(C)(C)C	-11.4	–
CCC(=O)O	-11.9	–
CC(C)CC(C)C(C)C (centres undefined)	-11.1	–
C=C(C)C(=C)C	-9.91	–
CCCCOCCO	-10.7	–
C1=Cc2cccc3cccc1c23	-9.96	–
CC(C)C(C)O (centres undefined)	-10.9	–
C=CC(=C)C	-10	–
Cc1ccc2ccccc2c1	-10.3	–
CC(C)(C)C	-12.1	–
CCC(C)S (centres undefined)	-10.4	–
c1c[nH]cn1	–	log10 OH rate constant (cm³/molecule/s) (24.0 °C): -10.4
CC1CCCC(C)(C)C1 (centres undefined)	-11.1	–
CCCCCCCCCCCCCCCC	-10.6	–
COP(N)(=S)OC	-9.61	–
C=CC=C	-10.2	–
C=C(C)CCC(=C)C	-9.92	–
COCCC(OC)OC	-10.7	–
CC(C)C(C)(C)C	-11.4	–
C=CBr	-11.2	–
CC(=O)OCC(C)C	-11.3	–
FCCF	-13	–
